Test results taken from ChEMBL document CHEMBL1138480, “Discovery of highly potent and selective biphenylacylsulfonamide-based beta3-adrenergic receptor agonists and evaluation of physical properties as potential overactive bladder therapies: part 5” (J Med Chem, 2009).

Columns and labels:
[1] = Cmax in Beagle dog at 0.10 mg/kg, po by cassette assay; format: ADME, organism-based, Canis lupus familiaris; design: dose 0.1 mg/kg, route oral; conditions: in vivo, 0.1 mg/kg
[2] = AUC (0 to 24 hrs) in Beagle dog at 0.10 mg/kg, po by cassette assay; format: ADME, organism-based, Canis lupus familiaris; design: time < 24 hr, dose 0.1 mg/kg, route oral; conditions: plasma, 0.1 mg/kg
[3] = biological target: Beta-1 adrenergic receptor (Homo sapiens, UniProt P08588)
Description: Agonist activity at human recombinant beta-1 adrenergic receptor expressed in CHO cells assessed as cAMP accumulation by enzyme immunoassay

[4] = biological target: Beta-3 adrenergic receptor (Homo sapiens, UniProt P13945); assay: Agonist activity at human recombinant beta3 adrenergic receptor expressed in CHO cells assessed as cAMP accumulation by enzyme immunoassay; format: functional, cell-based
[5] = Terminal half life in Beagle dog plasma at 0.10 mg/kg, iv by cassette assay; format: ADME, organism-based, Canis lupus familiaris; design: dose 0.1 mg/kg, route intravenous; conditions: 0.1 mg/kg, read-out: beta t1/2 (converted)
[6] = Bioavailability in Beagle dog at 0.10 mg/kg, po and iv by cassette assay; format: ADME, organism-based, Canis lupus familiaris; conditions: in vivo, 0.1 mg/kg
[7] = Total clearance in Beagle dog at 0.10 mg/kg, iv by cassette assay; format: ADME, organism-based, Canis lupus familiaris; design: dose 0.1 mg/kg, route intravenous; conditions: in vivo, 0.1 mg/kg
[8] = Inhibition of KCl-induced tonic contraction in Beagle dog detrusor muscle strips preincubated for 15 mins before KCl challenge; format: functional; conditions: Canis lupus familiaris
Canis familiaris [9] = assay: Ratio of Cmax for drug to Cmax for (R)-4'-(2-(2-(3-chlorophenyl)-2-hydroxyethylamino)ethyl)-3-isopropoxybiphenyl-4-carboxylic acid in beagle dog at 0.1 or 0.2 mg/kg, po by cassette assay; format: ADME, organism-based, Canis lupus familiaris; design: dose 0.2 mg/kg, route oral; conditions: in vivo
Canis familiaris [10] = assay: Inhibition of carbachol-induced increase in intravesical pressure in intraduodenally dosed Beagle dog OAB model for 30 mins measured for 180 mins; format: functional, organism-based; conditions: Canis lupus familiaris
[11] = biological target: Beta-2 adrenergic receptor (Homo sapiens, UniProt P07550)
Description: Agonist activity at human recombinant beta2 adrenergic receptor expressed in CHO cells assessed as cAMP accumulation by enzyme immunoassay

[12] = biological target: Beta-3 adrenergic receptor (Canis lupus familiaris, UniProt O02662); assay: Agonist activity at dog recombinant beta3 adrenergic receptor expressed in CHO cells assessed as cAMP accumulation by enzyme immunoassay; format: functional, cell-based
[13] = Protein binding in Beagle dog serum; format: ADME, cell-free, Canis lupus familiaris; conditions: read-out: PPB (converted)
Canis familiaris [14] = assay: Inhibition of carbachol-induced increase in intravesical pressure in Beagle dog OAB model at 10 ug/kg, iv for 30 mins measured for 180 mins; format: functional; conditions: Canis lupus familiaris

Beta-3 adrenergic receptor (Homo sapiens, UniProt P13945), sequence (P13945 whole entry): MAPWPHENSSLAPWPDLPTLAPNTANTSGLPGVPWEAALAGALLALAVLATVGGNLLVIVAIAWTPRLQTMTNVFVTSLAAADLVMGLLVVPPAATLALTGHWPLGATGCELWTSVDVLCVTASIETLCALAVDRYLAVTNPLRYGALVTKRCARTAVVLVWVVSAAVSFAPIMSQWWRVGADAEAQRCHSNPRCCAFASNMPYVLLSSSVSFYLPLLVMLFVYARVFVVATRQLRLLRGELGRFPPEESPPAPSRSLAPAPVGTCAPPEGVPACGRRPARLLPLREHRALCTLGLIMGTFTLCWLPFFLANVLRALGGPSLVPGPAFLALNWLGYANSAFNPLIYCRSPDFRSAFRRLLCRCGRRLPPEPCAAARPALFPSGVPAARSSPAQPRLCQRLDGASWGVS
Beta-3 adrenergic receptor (Canis lupus familiaris, UniProt O02662), sequence (O02662 whole entry): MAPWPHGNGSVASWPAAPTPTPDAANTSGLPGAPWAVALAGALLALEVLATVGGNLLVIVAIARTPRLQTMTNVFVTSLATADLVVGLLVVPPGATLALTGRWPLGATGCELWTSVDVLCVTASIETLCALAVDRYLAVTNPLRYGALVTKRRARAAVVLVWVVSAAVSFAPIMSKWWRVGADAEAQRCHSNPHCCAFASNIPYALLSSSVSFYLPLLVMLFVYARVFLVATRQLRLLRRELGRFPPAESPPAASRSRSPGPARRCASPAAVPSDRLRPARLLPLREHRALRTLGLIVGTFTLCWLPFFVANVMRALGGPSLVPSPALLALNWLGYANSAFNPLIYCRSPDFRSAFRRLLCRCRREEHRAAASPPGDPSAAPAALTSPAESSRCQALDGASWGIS
Beta-1 adrenergic receptor, sequence (P08588 whole entry): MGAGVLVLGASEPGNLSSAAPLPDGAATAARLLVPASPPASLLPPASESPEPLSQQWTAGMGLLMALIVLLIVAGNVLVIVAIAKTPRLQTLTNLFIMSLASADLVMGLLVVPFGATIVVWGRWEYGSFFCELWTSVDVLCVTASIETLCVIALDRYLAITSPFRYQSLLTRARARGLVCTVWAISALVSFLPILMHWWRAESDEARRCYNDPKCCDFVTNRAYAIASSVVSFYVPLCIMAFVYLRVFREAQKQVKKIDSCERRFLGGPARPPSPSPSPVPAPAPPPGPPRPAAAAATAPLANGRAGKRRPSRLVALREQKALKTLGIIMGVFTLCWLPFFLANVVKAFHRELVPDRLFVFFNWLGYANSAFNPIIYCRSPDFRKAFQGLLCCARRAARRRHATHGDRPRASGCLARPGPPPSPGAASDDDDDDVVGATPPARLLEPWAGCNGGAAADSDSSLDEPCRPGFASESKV
Beta-2 adrenergic receptor, sequence (P07550 whole entry): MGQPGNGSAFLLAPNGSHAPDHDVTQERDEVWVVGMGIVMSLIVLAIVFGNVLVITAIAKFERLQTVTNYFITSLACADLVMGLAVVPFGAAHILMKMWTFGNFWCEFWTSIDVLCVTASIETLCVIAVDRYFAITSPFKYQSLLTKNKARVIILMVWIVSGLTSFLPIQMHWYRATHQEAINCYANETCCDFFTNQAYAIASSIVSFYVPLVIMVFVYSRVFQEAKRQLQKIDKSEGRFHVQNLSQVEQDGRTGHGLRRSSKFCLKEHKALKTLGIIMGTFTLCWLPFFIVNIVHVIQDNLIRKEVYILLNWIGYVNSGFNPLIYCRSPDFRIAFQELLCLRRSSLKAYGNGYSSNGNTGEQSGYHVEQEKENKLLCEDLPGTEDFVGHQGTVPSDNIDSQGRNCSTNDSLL

SMILES | Cmax [1] [ng/mL] | AUC(0-t) at 24 h [2] [µg·h/mL] | EC50 [3] [nM] | EC50 ([4]; read-out: EC50) [nM] | half-life [5] [h] | bioavailability [6] [%] | clearance [7] [L/h/kg] | also measured
CS(=O)(=O)NC(=O)c1ccc(-c2ccc(CCNC[C@H](O)c3ccccc3)cc2)cc1C1CCCCC1.Cl | 13.1 | 0.106 | > 1000 | 0.33 | – | – | – | –
CCCSc1cc(-c2ccc(CCNC[C@H](O)c3ccccc3)cc2)ccc1C(=O)NS(C)(=O)=O.Cl | 8.1 | 0.0919 | > 1000 | 1.4 | – | – | – | –
CS(=O)(=O)NC(=O)c1ccc(-c2ccc(CCNC[C@H](O)c3ccccc3)cc2)cc1OC1CCCCCC1 | – | – | 220 | 0.38 | – | – | – | –
CS(=O)(=O)NC(=O)c1ccc(-c2ccc(CCNC[C@H](O)c3ccccc3)cc2)cc1SC1CCCCC1.Cl | 8 | 0.0563 | 840 | 0.5 | – | – | – | –
CC(C)Nc1cc(-c2ccc(CCNC[C@H](O)c3cccnc3)cc2)ccc1C(=O)NS(C)(=O)=O.Cl.Cl.Cl | 1.9 | 0.0104 | 320 | 0.2 | 2.7 | 12 | 0.984 | –
CS(=O)(=O)NC(=O)c1ccc(-c2ccc(CCNC[C@H](O)c3cccnc3)cc2)cc1C1CCCC1.Cl.Cl | 1.4 | 0.0134 | > 1000 | 0.29 | 1.4 | 18 | 1.31 | –
O=C(O)c1ccc(-c2ccc(CCNC[C@H](O)c3cccnc3)cc2)cc1OC1CCCCC1 | – | – | – | – | – | – | – | EC50 ([8]; read-out: EC50): 14.1 nM; EC50 ([8]; read-out: pEC50 (converted)): 5.01 nM; Ratio (Canis familiaris [9]): 0.48; EC50 (Canis familiaris [10]): 4 nM; ED50 (Canis familiaris [10]): 0.065 mg/kg; EC50 [11]: > 10000 nM; EC50 ([12]; read-out: pEC50 (converted)): 1.26 nM; EC50 ([4]; read-out: pEC50 (converted)): 0.251 nM; fraction unbound [13]: 0.11
CC(C)Sc1cc(-c2ccc(CCNC[C@H](O)c3cccnc3)cc2)ccc1C(=O)NS(C)(=O)=O.Cl.Cl | 5.3 | 0.0509 | 240 | 0.19 | 4.3 | 14 | 0.324 | –
CC(C)Oc1cc(-c2ccc(CCNC[C@H](O)c3ccc(N)cc3)cc2)ccc1C(=O)NS(C)(=O)=O | – | – | > 1000 | 5.5 | – | – | – | EC50 ([4]; read-out: pEC50 (converted)): 0.2 nM
CS(=O)(=O)NC(=O)c1ccc(-c2ccc(CCNC[C@H](O)c3ccccc3)cc2)cc1C1CCCC1.Cl | 17.1 | 0.211 | > 1000 | 0.41 | 4.7 | 50 | 0.24 | –
CS(=O)(=O)NC(=O)c1ccc(-c2ccc(CCNC[C@H](O)c3ccccc3)cc2)cc1CC1CCCCC1.Cl | 27.9 | 0.23 | 370 | 0.54 | 3.9 | 70 | 0.294 | –
CC(C)Oc1cc(-c2ccc(CCNC[C@H](O)c3ccccc3)cc2)ccc1C(=O)NS(C)(=O)=O.Cl | 33.4 | 0.561 | > 1000 | 3.1 | 12 | 75 | 0.138 | inhibition in vivo at 0.01 mg/kg (Canis familiaris [14]): 51%; EC50 ([12]; read-out: EC50): 4.9 nM; EC50 ([12]; read-out: pEC50 (converted)): 1 nM; EC50 ([4]; read-out: pEC50 (converted)): 0.631 nM
CC(C)Cc1cc(-c2ccc(CCNC[C@H](O)c3cccnc3)cc2)ccc1C(=O)NS(C)(=O)=O.Cl.Cl | 2.6 | 0.012 | 490 | 0.32 | 0.6 | 21 | 2.15 | –
CC(C)Cc1cc(-c2ccc(CCNC[C@H](O)c3cccnc3)cc2)ccc1C(=O)O | – | – | – | – | – | – | – | Ratio (Canis familiaris [9]): 0.36
